{"source": "patent US20260191192A1", "about": "“ANTIMICROBIAL COMPOSITIONS COMPRISING PELARGONIC ACID” (LANXESS Corporation, priority 2023, published 2026)", "key": {"[1]": {"test_system": "mixed bacterial inoculum (Table 6)", "test": "Challenge test (preservative efficacy), mixed bacterial inoculum, full pool (Table 6)", "assay_type": "cell-based", "procedure": "(§1) The preservative activity in representative rinse-off and leave-on formulations was evaluated using a modification of the Personal Care Products Council (PCPC—formerly the Cosmetic, Toiletry and Fragrance Association) protocol (Machtiger, et al. 2001. Determination of the Efficacy of Preservation of Non-Eye Area Water Miscible Cosmetic and Toiletry Formulations: Collaborative Study. J of AOAC International. 84:1, 101-109).\n(§2) This evaluation was conducted using a four week, two or three-cycle (i.e., two-cycle for personal care and three-cycle for home care applications) microbial preservative efficacy test (i.e., challenge test) at 25° C. to determine the preservative efficacy of each treatment. Phenoxyethanol, benzyl alcohol and pelargonic acid were tested alone and in various combinations. The pelargonic acid used in the testing was purchased from Sigma-Aldrich. Combinations of phenoxyethanol or benzyl alcohol with benchmark multifunctional booster compounds were also tested for comparison. The preservative and booster ingredients were dosed and mixed thoroughly at room temperature into various formulations, specifically different personal care formulations including a lotion (leave-on, Table 1), a micellar water (rinse-off, Table 2), and a body wash formulation (rinse-off, Table 3) and different home care formulations including a manual dishwashing formulation (Table 4) and a liquid laundry detergent formulation (Table 5). […] Carbomers are a commonly used synthetic rheological modifier in personal care products. The formulation below was made by heating the aqueous (A) and oil (B) phases separately to 75-80° C. The oil phase was then poured into the aqueous phase and mixed by a homogenizer at approximately 45° C. The formed oil-in-water emulsion was cooled to room temperature. Triethanolamine and/or diluted sodium hydroxide was used to adjust the final pH to 6.3 or 6.5 (as indicated in the examples below).\n(§3) After dosing, the samples were divided into two separate five gram aliquots. One aliquot was inoculated with 50 μl of a diluted bacterial pool, and the second aliquot was inoculated with 50 μl of a diluted fungal pool as described below. Unpreserved product samples were included as a growth control.\n(§4) For personal care products, a mixed bacterial inoculum was prepared using 24-hour cultures of the test bacteria (Table 6) grown in trypticase soy broth (TSB). For home care products, a mixed bacterial inoculum was prepared using 24-hour cultures of the test bacteria either from Table 6 (full pool) or Table 7 (simplified pool) grown in trypticase soy broth (TSB). Details are disclosed in the home care examples below. Equal volumes of the bacterial test strains were combined and diluted one to ten in phosphate buffer to obtain an inoculum of approximately 5×10^7 to 5×10^8 colony forming units per ml (cfu/ml). The test samples were inoculated with 1% of the mixed bacterial inoculum. For both personal care and home care products, a mixed fungal inoculum was prepared using cell suspensions of the yeast Candida albicans ATCC #10231 and the mold Aspergillus brasiliensis ATCC #16404 in phosphate buffer. Equal volumes of the fungal test strains were combined and diluted one to ten with phosphate buffer to obtain an inoculum of approximately 5×10^6 to 5×10^7 cfu/ml. The test samples were inoculated with 1% of the mixed fungal inoculum.\n(§5) For personal care products, the samples were subjected to two microbial challenges at time zero and inoculated a second time after seven days. For home care products, the samples were subjected to three microbial challenges at time zero and inoculated a second and third time after seven and fourteen days, respectively. The number of microorganisms added to each sample was determined by a standard Most Probable Number (MPN) determination in Trypticase Soy Broth (TSB) for bacteria and Potato Dextrose Broth (PDB) for fungi. Samples were incubated at 25° C. for the test duration of four weeks."}, "[2]": {"test": "ZenBio Cupric Ion Chelating (CIC) Assay", "assay_type": "physicochemical", "conditions": "calculated from a EDTA calibration curve, Pelargonic Acid at 775 μM", "procedure": "The chelation property of the pelargonic acid was measured by using the ZenBio Cupric Ion Chelating (CIC) Assay (Cat #AOX-16). The assay measured the capacity of the pelargonic acid to chelate free cupric ions in solution, thereby inhibiting Cu(II) binding to pyrocatechol violet (PV) for generating a highly colored complex. The absorbance of the Cupric-PV complex was measured at a wavelength of 632 nm. The cupric ion chelating activity was determined as the percent of total PV over the Cu(II) binding. Ethylenediaminetetraacetic acid (EDTA), a well-known chelating agent, was used as a positive control. A series of EDTA with 7 different concentrations from 0 to 1000 μM were prepared and their corresponding absorbance measured and used as the calibration curve (Cupric ion chelating (%) vs. EDTA concentration). Percent cupric ion chelating was determined following the following calculations and Equation 1. The background absorbance value by averaging the absorbance values of the three background wells (no CuSO4 or sample). The average background absorbance was then subtracted from all the sample absorbance values. The maximal absorbance value (Absmax) was determined by averaging the absorbance values of the three wells containing CuSO4, PV and assay buffer. Abstest in Equation 1 is the absorbance of the test sample.\nThe calibration curve (Cupric ion chelating (%) vs. EDTA concentration) was fit by using a polynomial curve after log 10 transforming the concentrations (R2>0.98)."}, "[3]": {"test_system": "bacteria (Table 7 pool) and fungi", "test": "Challenge test, overall result (simplified bacteria pool and fungi)", "assay_type": "cell-based", "conditions": "dosed 1.0 wt %", "procedure": "as §1, §2, §3, §4, §5"}, "[4]": {"test_system": "mixed bacterial inoculum for home care (Table 7)", "test": "Challenge test (preservative efficacy), mixed bacterial inoculum, simplified pool (Table 7)", "assay_type": "cell-based, Pseudomonas aeruginosa, Staphylococcus aureus", "conditions": "dosed 1.0 wt %", "procedure": "as §1, §2, §3, §4, §5"}, "[5]": {"test_system": "mixed fungal inoculum: Candida albicans ATCC #10231 and Aspergillus brasiliensis ATCC #16404", "test": "Challenge test (preservative efficacy), mixed fungal inoculum", "assay_type": "cell-based", "procedure": "as §1, §2, §3, §4, §5"}, "[6]": {"test_system": "bacteria (Table 6 pool) and fungi", "test": "Challenge test, overall result (full bacteria pool and fungi)", "assay_type": "cell-based", "procedure": "as §1, §2, §3, §4, §5"}, "[7]": {"conditions": "body wash, pH 6.5, Example 1E, dosed 0.5 wt %"}, "[8]": {"conditions": "lotion with carbomer, pH 6.3, Example 1A, dosed 0.5 wt %"}, "[9]": {"conditions": "lotion with carbomer, pH 6.3, Example 1A, dosed 1.0 wt %"}, "[10]": {"conditions": "lotion with carbomer, pH 6.5, Example 1I, total dosing 0.8 wt %"}, "[11]": {"conditions": "liquid laundry detergent, pH 7.5, Example 1H, dosed 1.0 wt %"}, "[12]": {"conditions": "micellar water, pH 6.0, Example 1B, dosed 0.5 wt %"}, "[13]": {"conditions": "micellar water, pH 6.0, Example 1C, dosed 0.3 wt %"}}}
{"molecule": "CCCCCCCCC(=O)O", "note": "[Pelargonic Acid, nonanoic acid]", "values": [{"measurement": "Bacteria growth rating Result", "setting": "[1]; [7]", "result": "Fail (growth rating score caused by bacteria of 2 or more at days 21-28 of the testing period)"}, {"measurement": "Bacteria growth rating Result", "setting": "[1]; liquid laundry detergent, pH 7.5, full bacteria pool, Example 1H, dosed 1.0 wt %", "result": "Fail (growth rating score caused by bacteria of 2 or more at days 21-28 of the testing period)"}, {"measurement": "Bacteria growth rating Result", "setting": "[1]; [8]", "result": "Fail (growth rating score caused by bacteria of 2 or more at days 21-28 of the testing period)"}, {"measurement": "Bacteria growth rating Result", "setting": "[1]; [9]", "result": "Fail (growth rating score caused by bacteria of 2 or more at days 21-28 of the testing period)"}, {"measurement": "Bacteria growth rating Result", "setting": "[1]; lotion with carbomer, pH 6.3, Example 1D, dosed 0.8 wt %", "result": "Fail (growth rating score caused by bacteria of 2 or more at days 21-28 of the testing period)"}, {"measurement": "Bacteria growth rating Result", "setting": "[1]; [10]", "result": "Fail (growth rating score caused by bacteria of 2 or more at days 21-28 of the testing period)"}, {"measurement": "Bacteria growth rating Result", "setting": "[1]; micellar water, pH 6.0, bacteria inoculation ~10^7 cfu/ml, Example 1B, dosed 0.5 wt %", "result": "Fail (growth rating score caused by bacteria of 2 or more at days 21-28 of the testing period)"}, {"measurement": "Bacteria growth rating Result", "setting": "[1]; micellar water, pH 6.0, bacteria inoculation ~10^8 cfu/ml, Example 1C, dosed 0.3 wt %", "result": "Fail (growth rating score caused by bacteria of 2 or more at days 21-28 of the testing period)"}, {"measurement": "Calculated EDTA equivalent", "setting": "[2]", "result": 667, "unit": "µM"}, {"measurement": "Overall Result", "setting": "[3]; liquid laundry detergent, pH 7.5, Example 1G", "result": "Fail"}, {"measurement": "Overall Result", "setting": "[3]; manual dishwashing formulation, pH 5.5, Example 1F", "result": "Fail"}, {"measurement": "Bacteria growth rating Result", "setting": "[4]; liquid laundry detergent, pH 7.5, simplified bacteria pool, Example 1G", "result": "Fail (growth rating score caused by bacteria of 2 or more at days 21-28 of the testing period)"}, {"measurement": "Bacteria growth rating Result", "setting": "[4]; manual dishwashing formulation, pH 5.5, simplified bacteria pool, Example 1F", "result": "Fail (growth rating score caused by bacteria of 2 or more at days 21-28 of the testing period)"}, {"measurement": "Fungi growth rating Result", "setting": "[5]; [7]", "result": "Pass (growth rating score caused by fungi of 2 or less at days 21-28 of the testing period)"}, {"measurement": "Fungi growth rating Result", "setting": "[5]; liquid laundry detergent, pH 7.5, Example 1G, dosed 1.0 wt %", "result": "Fail (growth rating score caused by fungi of more than 2 at days 21-28 of the testing period)"}, {"measurement": "Fungi growth rating Result", "setting": "[5]; [11]", "result": "Fail (growth rating score caused by fungi of more than 2 at days 21-28 of the testing period)"}, {"measurement": "Fungi growth rating Result", "setting": "[5]; [8]", "result": "Fail (growth rating score caused by fungi of more than 2 at days 21-28 of the testing period)"}, {"measurement": "Fungi growth rating Result", "setting": "[5]; [9]", "result": "Fail (growth rating score caused by fungi of more than 2 at days 21-28 of the testing period)"}, {"measurement": "Fungi growth rating Result", "setting": "[5]; [10]", "result": "Fail (growth rating score caused by fungi of more than 2 at days 21-28 of the testing period)"}, {"measurement": "Fungi growth rating Result", "setting": "[5]; manual dishwashing formulation, pH 5.5, Example 1F, dosed 1.0 wt %", "result": "Fail (growth rating score caused by fungi of more than 2 at days 21-28 of the testing period)"}, {"measurement": "Fungi growth rating Result", "setting": "[5]; [12]", "result": "Fail (growth rating score caused by fungi of more than 2 at days 21-28 of the testing period)"}, {"measurement": "Fungi growth rating Result", "setting": "[5]; [13]", "result": "Fail (growth rating score caused by fungi of more than 2 at days 21-28 of the testing period)"}, {"measurement": "Overall Result", "setting": "[6]; [7]", "result": "Fail"}, {"measurement": "Overall Result", "setting": "[6]; [11]", "result": "Fail"}, {"measurement": "Overall Result", "setting": "[6]; [8]", "result": "Fail"}, {"measurement": "Overall Result", "setting": "[6]; [9]", "result": "Fail"}, {"measurement": "Overall Result", "setting": "[6]; [10]", "result": "Fail"}, {"measurement": "Overall Result", "setting": "[6]; [12]", "result": "Fail"}, {"measurement": "Overall Result", "setting": "[6]; [13]", "result": "Fail"}]}
